According to patent US11180504B2 (ORCHID PHARMA LTD., priority 2016, dated 2021):
Converted amounts (≈) assume the structure as drawn.

Key:
[1] = test system: carbapenem sensitive Pseudomonas aeruginosa; experiment: MIC by broth micro-dilution (CLSI), carbapenem sensitive P. aeruginosa; format: cell-based; details: Pseudomonas aeruginosa, ATCC27853, Meropenem susceptible P. aeruginosa ATCC27853; read-out: MIC
[2] = test system: carbapenemase producing K. pneumoniae; experiment: MIC by broth micro-dilution (CLSI), carbapenemase producing K. pneumoniae; format: cell-based, Klebsiella pneumoniae; details: Klebsiella pneumoniae, ATCCBAA1705, KPC-2 K. pneumoniae ATCC BAA-1705; read-out: MIC
[3] = test system: carbapenem sensitive Escherichia coli; experiment: MIC by broth micro-dilution (CLSI), carbapenem sensitive E. coli; format: cell-based; details: Escherichia coli, ATCC25922, ESBL −ve E. coli ATCC25922; read-out: MIC
[4] = test system: methicillin-sensitive Staphylococcus aureus; experiment: MIC by broth micro-dilution (CLSI), methicillin-sensitive S. aureus; format: cell-based; details: Staphylococcus aureus, ATCC 29213 / MSSA, MSSA S. aureus ATCC29213; read-out: MIC
[5] = test system: extended spectrum β lactamase (ESBL) SHV18 producing Klebsiella pneumoniae; experiment: MIC by broth micro-dilution (CLSI), ESBL SHV18 producing K. pneumoniae; format: cell-based; details: Klebsiella pneumoniae, ATCC700603, 22 h, ESBL +ve (SHV-18) K. pneumoniae ATCC700603; read-out: MIC

Row | MIC [1] [µg/mL] | MIC [2] [µg/mL] | MIC [3] [µg/mL] | MIC [4] [µg/mL] | MIC [5] [µg/mL] | Compound
1 | > 128 | 4 (≈ 8.36 µM) | 1 (≈ 2.09 µM) | 4 (≈ 8.36 µM) | 4 (≈ 8.36 µM) | COCc1cn([C@H](C)[C@H]2C(=O)N3C(C(=O)O)=C(S[C@@H]4CN[C@H](C(=O)N(C)C)C4)[C@H](C)[C@H]23)nn1 [Example 233]
2 | > 128 | 4 (≈ 7.76 µM) | 0.5 (≈ 0.97 µM) | 0.5 (≈ 0.97 µM) | 4 (≈ 7.76 µM) | COCc1cn([C@H](C)[C@H]2C(=O)N3C(C(=O)O)=C(S[C@@H]4CN[C@H](CNS(N)(=O)=O)C4)[C@H](C)[C@H]23)nn1 [Example 234]
3 | 2 (≈ 3.73 µM) | 2 (≈ 3.73 µM) | 1 (≈ 1.86 µM) | 8 (≈ 14.9 µM) | 4 (≈ 7.45 µM) | CNCC(=O)N[C@H](C)[C@H]1C(=O)N2C(C(=O)O)=C(S[C@@H]3CN[C@H](C(=O)N4CCN(C(=N)N)CC4)C3)[C@H](C)[C@H]12 [Example 361, (4R,5S,6R)-3-((3S,5S)-5-(4-carbamimidoylpiperazine-1-carbonyl)pyrrolidin-3-ylthio)-4-methyl-6-((R)-1-(2-(methylamino)acetamido)ethyl)-7-oxo-1-azabicyclo[3.2.0]hept-2-ene-2-carboxylic acid]
